{"source": "paper PMC9307114", "about": "“Discovery and SAR analysis of phenylbenzo[d][1,3]dioxole-based proprotein convertase subtilisin/kexin type 9 inhibitors” (Journal of Enzyme Inhibition and Medicinal Chemistry, 2022)", "key": {"[1]": {"molecular_target": "PCSK9/LDLR PPI (Homo sapiens, UniProt Q8NBP7)", "sequence (Q8NBP7 153-692)": "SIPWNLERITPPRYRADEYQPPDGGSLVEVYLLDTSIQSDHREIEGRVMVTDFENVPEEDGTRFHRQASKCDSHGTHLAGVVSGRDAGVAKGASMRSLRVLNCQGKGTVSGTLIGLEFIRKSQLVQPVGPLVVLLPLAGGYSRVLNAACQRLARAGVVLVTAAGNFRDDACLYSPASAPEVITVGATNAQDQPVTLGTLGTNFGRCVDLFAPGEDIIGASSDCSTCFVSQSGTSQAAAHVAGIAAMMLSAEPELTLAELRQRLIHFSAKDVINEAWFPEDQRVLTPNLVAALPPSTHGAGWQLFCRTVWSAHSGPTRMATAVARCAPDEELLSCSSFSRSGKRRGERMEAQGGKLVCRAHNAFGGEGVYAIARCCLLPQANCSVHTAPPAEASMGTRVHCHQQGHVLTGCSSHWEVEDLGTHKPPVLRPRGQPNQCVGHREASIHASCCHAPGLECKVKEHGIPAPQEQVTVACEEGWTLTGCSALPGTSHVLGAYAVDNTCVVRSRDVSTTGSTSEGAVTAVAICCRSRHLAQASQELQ", "sequence (Q8NBP7 31-152 partner limits assumed)": "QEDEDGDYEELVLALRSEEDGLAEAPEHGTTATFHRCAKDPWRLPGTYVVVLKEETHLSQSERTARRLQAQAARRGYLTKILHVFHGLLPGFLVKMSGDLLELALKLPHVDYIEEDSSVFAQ", "experiment": "PCSK9-LDLR TR-FRET assay (PCSK9/LDLR PPI inhibitory screening)", "type": "binding", "details": "for inhibition at 10 µM: mean of three experiments, read-out: PCSK9 percentage inhibitory rate; for IC50: dose-dependent IC50 plot, Figure 3, read-out: PCSK9 IC50 (inhibition of PCSK9/LDLR PPI)", "protocol": "The PCSK9/LDLR time-resolved fluorescence resonance energy transfer (TR-FRET) assay was performed to evaluate the activity of synthesised compounds in inhibition of PCSK9-LDLR binding. The A series compounds were firstly synthesised for the PCSK9/LDLR PPI inhibitory test. […] Therefore, a group of A12 derivatives (B series) were synthesised with 4-chlorobenzyl substituted in the amino group and various substitutions introduced to the carboxylic group. […] To confirm whether the 4-chloromethyl group is essential for the PPI inhibitory activity, a new series of compounds (C series) were synthesised with the 4-chloromethyl group replaced by 4-methoxymethyl moiety. The inhibitory activity was observed, most likely resulting from the 4-methoxymethyl substitution (Table 3).\nThe compounds were dissolved in 100% DMSO; then 2 µL of the dilution was added to a 20 µL of reaction to keep […] in all of reactions. The binding reaction was conducted at room temperature. The reaction mixture in assay buffer contains PCSK9, the indicated amount of the inhibitor, ligand LDLR, and the reaction dyes. The reaction mixture was incubated for 120 min before detection of the TR-FRET signal. Fluorescence signals for both the donor and acceptor dyes were measured using a Tecan Infinite M1000 plate reader. TR-FRET was recorded as the ratio of the fluorescence of the acceptor and the donor dyes (acceptor/donor). The TR-FRET data were analysed using Graphpad Prism software."}, "[2]": {"test_system": "HepG2 cells", "experiment": "MTT assay on HepG2 cells", "type": "cell-based", "details": "Homo sapiens, mean of three experiments, read-out: HepG2 percentage inhibitory rate"}, "[3]": {"test_system": "LDL uptake of HepG2 cells", "experiment": "Fluorescent LDL uptake assay in the presence of PCSK9", "type": "cell-based, human", "details": "PCSK9 treatment group 29.82%", "protocol": "Extracellular LDL uptake assay was performed to evaluate the functional effects of PCSK9/LDLR PPI inhibition. The effects of active compounds in improving the capacity of HepG2 cells to uptake the fluorescent LDL were investigated using SBC-115337 as the positive control. […] The tested compound A12, B1, B3, B4 and B14 strengthened the ability of HepG2 cells to absorb LDL from 29.82% of the PCSK9 treatment group up to 32.78%, 33.29%, 39.58%, 36.24% and 42.41% at the doses of 5 µM, and 44.80%, 47.15%, 50.67%, 49.94 and 64.27% at the doses of 10 µM, respectively.\nHepG2 cells (2 × 10^4 cells per well) were seeded in black 96-well plates and cultured for more than 24 h. The following day, cells were treated with 4.0 μg/ml K9 alone and the tested compounds with the presence of 4.0 μg/ml of K9, and vehicle (PBS) for 8 h. At the end of the treatments, the culture medium was replaced with 50.0 μl/well LDL-DyLight™ 550 working solution (Cayman Chemical Company, US). The cells were additionally incubated for 16 h at 37 °C. Then the cells were washed with PBS one time, then added PBS with 100.0 μl/well. The degree of LDL uptake was measured using a plate reader (EnSpire, Perkin Elmer Corporation) at excitation wavelengths 540 nm and emission wavelengths 570 nm."}, "[4]": {"test_system": "LDLR level on the surface of HepG2 cells", "experiment": "LDLR expression assay, In-Cell Western (ICW), in the presence of PCSK9", "type": "cell-based, human", "details": "for effect on LDLR protein level (in words): HepG2 cells in the presence of PCSK9, compared with positive control SBC-115337; for proportion of LDLR: PCSK9 alone 34.33%", "protocol": "LDLR is degraded in lysosomes by binding to PCSK9. Thus, inhibition of PCSK9/LDLR PPI could increase the LDLR level on the surface of hepatocytes. In the current study, human hepatic HepG2 cells were selected for the investigation of the active compounds for LDLR expression. SBC-115337, developed by Shifa Biomedical Corporation, as a potent PCSK9/LDLR PPI inhibitor was utilised as the positive control. All the synthesised compounds were evaluated to be safe with low inhibitory ratios at the dose of 10 µM in the MTT assay (Tables 1–3). Then, in cell western (ICW) assay was performed to detect the LDLR level on the surface of HepG2 cells.\nThe HepG2 cell line was grown in a humidified incubator with 5% CO2 at 37 °C and cultured in DMEM-High glucose medium with 10% (v/v) heat-inactivation foetal bovine serum, 2 mM L-glutamine and 100 U/ml penicillin-streptomycin. The expression level of LDLR in HepG2 cells was determined by In-Cell Western (ICW) Assay as described previously. Briefly, cells were plated in a 96-well plate (2 × 10^4 cells per well) and cultured for more than 24 h, followed by washing with PBS and starving overnight in DMEM without FBS. HepG2 cells were treated with 4.0 μg/ml PCSK9 (K9) alone and the tested compounds with the presence of 4.0 μg/ml of K9, and vehicle (PBS) for 8 h. Then cells were washed with PBS one time and fixed in 4% paraformaldehyde for 20 min. Cells were washed 5 times with PBS, then were blocked with 5% BSA in PBS for 1 h. LDLR monoclonal Antibody solution (1:1000 in 5% BSA in PBS, 50.0 μL/well) was incubated overnight at 4 °C. Subsequently, the cells were washed 5 times with PBS. Goat anti-mouse IgG-HRP secondary antibody solution (1:2000 in 5% BSA in PBS, 50.0 μL/well) was added and incubated 1 h at RT. Then cells were washed 5 times with PBS and added with TMB substrate, then incubated at RT until desired colour was developed. 50.0 μL/well of 2 M H2SO4 were added to stop the reaction and the absorbance at 450 nm was measured using a plate reader (EnSpire, Perkin Elmer Corporation)."}, "[5]": {"details": "5 µM compound with 4.0 μg/ml PCSK9"}, "[6]": {"details": "10 µM compound with 4.0 μg/ml PCSK9"}}}
{"compound": "COc1cc(NC(=O)c2ccc(-c3cc4c(cc3NC(=O)c3ccc(CCl)cc3)OCO4)cc2)cc(OC)c1OC", "note": "[A12, 4-(Chloromethyl)-N-(6-(4-((3,4,5-trimethoxyphenyl)carbamoyl)phenyl)benzo[d][1,3]dioxol-5-yl)benzamide]", "values": [{"measurement": "inhibition at 10 µM", "setting": "[1]", "value": "45.1 ± 0.12", "unit": "%"}, {"measurement": "IC50", "setting": "[1]", "value": 70.8, "unit": "µM"}, {"measurement": "inhibition at 10 µM", "setting": "[2]", "value": "7.85 ± 0.25", "unit": "%"}, {"measurement": "LDL uptake of HepG2 cells", "setting": "[3]; [5]", "value": 32.78, "unit": "%"}, {"measurement": "LDL uptake of HepG2 cells", "setting": "[3]; [6]", "value": 44.80, "unit": "%"}, {"measurement": "effect on LDLR protein level (in words)", "setting": "[4]", "value": "restored the LDLR protein level in a dose dependent manner"}]}
{"compound": "O=C(Nc1ccc(Cl)cc1)c1ccc(-c2cc3c(cc2NC(=O)c2ccc(CCl)cc2)OCO3)cc1", "note": "[B1, 4-(Chloromethyl)-N-(6-(4-((4-chlorophenyl)carbamoyl)phenyl)benzo[d][1,3]dioxol-5-yl)benzamide]", "values": [{"measurement": "inhibition at 10 µM", "setting": "[1]", "value": "54.3 ± 1.54", "unit": "%"}, {"measurement": "IC50", "setting": "[1]", "value": 62.2, "unit": "µM"}, {"measurement": "inhibition at 10 µM", "setting": "[2]", "value": "9.97 ± 0.39", "unit": "%"}, {"measurement": "LDL uptake of HepG2 cells", "setting": "[3]; [5]", "value": 33.29, "unit": "%"}, {"measurement": "LDL uptake of HepG2 cells", "setting": "[3]; [6]", "value": 47.15, "unit": "%"}, {"measurement": "effect on LDLR protein level (in words)", "setting": "[4]", "value": "restored the LDLR protein level in a dose dependent manner"}]}
{"compound": "O=C(Nc1ccc(F)cc1)c1ccc(-c2cc3c(cc2NC(=O)c2ccc(CCl)cc2)OCO3)cc1", "note": "[B3, 4-(Chloromethyl)-N-(6-(4-((4-fluorophenyl)carbamoyl)phenyl)benzo[d][1,3]dioxol-5-yl)benzamide]", "values": [{"measurement": "inhibition at 10 µM", "setting": "[1]", "value": "46.3 ± 2.77", "unit": "%"}, {"measurement": "IC50", "setting": "[1]", "value": 23.4, "unit": "µM"}, {"measurement": "inhibition at 10 µM", "setting": "[2]", "value": "8.09 ± 0.76", "unit": "%"}, {"measurement": "LDL uptake of HepG2 cells", "setting": "[3]; [5]", "value": 39.58, "unit": "%"}, {"measurement": "LDL uptake of HepG2 cells", "setting": "[3]; [6]", "value": 50.67, "unit": "%"}, {"measurement": "effect on LDLR protein level (in words)", "setting": "[4]", "value": "restored the LDLR protein level in a dose dependent manner"}]}
{"compound": "O=C(Nc1ccc(O)cc1)c1ccc(-c2cc3c(cc2NC(=O)c2ccc(CCl)cc2)OCO3)cc1", "note": "[B4, 4-(Chloromethyl)-N-(6-(4-((4-hydroxyphenyl)carbamoyl)phenyl)benzo[d][1,3]dioxol-5-yl)benzamide]", "values": [{"measurement": "inhibition at 10 µM", "setting": "[1]", "value": "45.2 ± 2.85", "unit": "%"}, {"measurement": "IC50", "setting": "[1]", "value": 24.6, "unit": "µM"}, {"measurement": "inhibition at 10 µM", "setting": "[2]", "value": "5.42 ± 0.38", "unit": "%"}, {"measurement": "LDL uptake of HepG2 cells", "setting": "[3]; [5]", "value": 36.24, "unit": "%"}, {"measurement": "LDL uptake of HepG2 cells", "setting": "[3]; [6]", "value": 49.94, "unit": "%"}, {"measurement": "effect on LDLR protein level (in words)", "setting": "[4]", "value": "restored the LDLR protein level in a dose dependent manner"}]}
{"compound": "COc1ccccc1N1CCN(C(=O)c2ccc(-c3cc4c(cc3NC(=O)c3ccc(CCl)cc3)OCO4)cc2)CC1", "note": "[B14, 4-(Chloromethyl)-N-(6-(4-(4-(2-methoxyphenyl)piperazine-1-carbonyl)phenyl)benzo[d][1,3]dioxol-5-yl)benzamide]", "values": [{"measurement": "inhibition at 10 µM", "setting": "[1]", "value": "64.6 ± 1.54", "unit": "%"}, {"measurement": "IC50", "setting": "[1]", "value": 16.4, "unit": "µM"}, {"measurement": "inhibition at 10 µM", "setting": "[2]", "value": "5.71 ± 0.54", "unit": "%"}, {"measurement": "LDL uptake of HepG2 cells", "setting": "[3]; [5]", "value": 42.41, "unit": "%"}, {"measurement": "LDL uptake of HepG2 cells", "setting": "[3]; [6]", "value": 64.27, "unit": "%"}, {"measurement": "proportion of LDLR", "setting": "[4]; 5 µM compound with 4.0 μg/ml PCSK9, 8 h", "value": 50.55, "unit": "%"}, {"measurement": "proportion of LDLR", "setting": "[4]; 10 µM compound with 4.0 μg/ml PCSK9, 8 h", "value": 66.51, "unit": "%"}, {"measurement": "effect on LDLR protein level (in words)", "setting": "[4]", "value": "restored the LDLR protein level in a dose dependent manner"}]}
